Data: patent publication US20130324707A1, “SYNTHETIC AMPHIPHILES FOR MEMBRANE PROTEIN MANIPULATION” (The Board of Trustees of the Leland Stanford Junior …, priority 2009, published 2013)
Marks after values point to notes of the source that are not given here.

What was measured:
[1] = Critical micelle concentration (CMC) by fluorescent dye uptake; format: physicochemical
Source text: The Critical Micelle Concentrations (CMCs) of compounds of the invention can be determined by standard techniques known to those of skill in the art. For example, CMCs of the carbohydrate-based amphiphiles described herein can be determined by monitoring uptake of a fluorescent dye (e.g., a dye such as 1,6-diphenylhexatriene) with increasing detergent concentration, monitored by fluorescence spectroscopy.

[2] = tested on: human β2 adrenergic receptor-T4-lyosome fusion protein (β2AR-T4L); assay: Thermal stabilization (Tm) of β2AR-T4L in amphiphile, normalized peak ratio 341 nm/356 nm; parameters: Tm: unit: °C; settings: for Tm: β2AR-T4L
Source text: FIG. 3 illustrates the results of comparing MNGs to MPAs at 10×CMC for stabilization efficacy of β2 adrenergic receptor-T4-lyosome fusion protein (β2AR-T4L), according to an embodiment of the invention.
FIG. 4 illustrates the results of comparing MNGs to MPAs at 50×CMC for stabilization efficacy of β2AR-T4L, according to an embodiment of the invention. Similar to FIG. 3, the horizontal dotted line extending from 50% on the y-axis in FIG. 4 indicates the melting temperature (Tm).
The branched amphiphiles of the invention have shown to have several advantageous properties that match or surpass those of many known amphiphiles. The branched nature provide improved stabilization, attributable to the dual saccharide chains, and improved solubilization, attributable to the dual hydrophobic tail groups. FIGS. 3 and 4 show a comparative study showing normalized peak ratios (341 nm/356 nm) for six different amphiphiles (illustrated in Schemes F and G) from 25° C. to 85° C., at 10×CMC and 50×CMC for human β2 adrenergic receptor-T4-lyosome fusion protein (β2AR-T4L).

[3] = 10 × CMC, scan from 25° C. to 85° C.
[4] = concentration not given, matches most favourable (*) Tm minus DDM 63.5

SMILES	CMC [1]	CMC (%) [1]	ΔTm ([2]; 10 × CMC, relative to DDM)	Tm [2, 3]	ΔTm ([2]; 50 × CMC, relative to DDM)	Tm ([2]; 50 × CMC)	ΔTm [2, 4]
OCC1OC(OCC(COC2OC(CO)C(O)C(O)C2O)(CSC2CCCCC2)CSC2CCCCC2)C(O)C(O)C1O (stereo not drawn) [GNG-1]	2.1 mM	0.13%	–	–	–	–	–
O=C(NCC(CNC(=O)C1CCCC1)(COC1OC(CO)C(O)C(O)C1O)COC1OC(CO)C(O)C(O)C1O)C1CCCC1 (stereo not drawn) [GNG-4]	72 mM	4.7%	–	–	–	–	–
CCCCCCOCC(COCCCCCC)(COC1OC(CO)C(O)C(O)C1O)COC1OC(CO)C(O)C(O)C1O (stereo not drawn) [GNG-6]	1.55 mM	0.08%	–	–	–	–	–
CCCCCCCOCC(COCCCCCCC)(COC1OC(CO)C(O)C(O)C1O)COC1OC(CO)C(O)C(O)C1O (stereo not drawn) [GNG-7]	0.1 mM	0.0092%	–	–	–	–	–
OCC1OC(OCC(COC2CCCCC2)(COC2CCCCC2)COC2OC(CO)C(O)C(O)C2O)C(O)C(O)C1O (stereo not drawn) [GNG-10]	17 mM	1.07%	–	–	–	–	–
OCC1OC(OCC(COC2OC(CO)C(O)C(O)C2O)(CSCCc2ccccc2)CSCCc2ccccc2)C(O)C(O)C1O (stereo not drawn) [GNG-11]	0.82 mM	0.06%	–	–	–	–	–
CCCCCCC(CCCCCC)(COC1OC(CO)C(O)C(O)C1O)COC1OC(CO)C(O)C(O)C1O (stereo not drawn) [GNG-12]	1.02 mM	0.058%	–	–	–	–	–
CCCCCC(CCCCC)(COC1OC(CO)C(O)C(O)C1O)COC1OC(CO)C(O)C(O)C1O (stereo not drawn) [GNG-13]	9.64 mM	0.373%	–	–	–	–	–
CCCCCOCC(COCCCCC)(COC1OC(CO)C(O)C(O)C1O)COC1OC(CO)C(O)C(O)C1O (stereo not drawn) [GNG-14]	13.4 mM	0.647%	–	–	–	–	–
CCCCCCCCCCC(=O)NCC(CNC(=O)CCCCCCCCCC)(CO[C@H]1OC(CO)[C@H](O[C@@H]2OC(CO)[C@H](O)C(O)[C@H]2O)C(O)[C@H]1O)CO[C@H]1OC(CO)[C@H](O[C@@H]2OC(CO)[C@H](O)C(O)[C@H]2O)C(O)[C@H]1O (stereo partly drawn) [MNG-1]	0.017 mM	0.0019%	+1.6	65.1 (n = 3)*	+2.1	65.1 (n = 3)*	+1.6
CCCCCCCCCCCC(CCCCCCCCCCC)(CO[C@H]1OC(CO)[C@H](O[C@@H]2OC(CO)[C@H](O)C(O)[C@H]2O)C(O)[C@H]1O)CO[C@H]1OC(CO)[C@H](O[C@@H]2OC(CO)[C@H](O)C(O)[C@H]2O)C(O)[C@H]1O (stereo partly drawn) [MNG-4]	0.0037 mM	0.00038%	+0.6	64.1 (n = 3)	+4.3	67.3 (n = 3)*	+3.8
CCCCCCCCCCOCC(COCCCCCCCCCC)(CO[C@H]1OC(CO)[C@H](O[C@@H]2OC(CO)[C@H](O)C(O)[C@H]2O)C(O)[C@H]1O)CO[C@H]1OC(CO)[C@H](O[C@@H]2OC(CO)[C@H](O)C(O)[C@H]2O)C(O)[C@H]1O (stereo partly drawn) [MNG-6]	0.009 mM	0.00096%	+1.1	64.6 (n = 3)	+4.1	67.1 (n = 3)*	+3.6
O=C(CCCC1CCCCC1)NCC(CNC(=O)CCCC1CCCCC1)(COC1OC(CO)C(OC2OC(CO)C(O)C(O)C2O)C(O)C1O)COC1OC(CO)C(OC2OC(CO)C(O)C(O)C2O)C(O)C1O (stereo not drawn) [MNG-9]	0.39 mM	0.043%	–	–	–	–	–
O=C(CCCCC1CCCCC1)NCC(CNC(=O)CCCCC1CCCCC1)(COC1OC(CO)C(OC2OC(CO)C(O)C(O)C2O)C(O)C1O)COC1OC(CO)C(OC2OC(CO)C(O)C(O)C2O)C(O)C1O (stereo not drawn) [MNG-10]	0.053 mM	0.0059%	–	–	–	–	–
CCCCCCCCCC(=O)NCC(CNC(=O)CCCCCCCCC)(COC1OC(CO)C(OC2OC(CO)C(O)C(O)C2O)C(O)C1O)COC1OC(CO)C(OC2OC(CO)C(O)C(O)C2O)C(O)C1O (stereo not drawn) [MNG-13]	0.043 mM	0.0047%	–	–	–	–	–
CCCCCCCCCCCCCC(=O)NCC(CNC(=O)CCCCCCC)(COC1OC(CO)C(OC2OC(CO)C(O)C(O)C2O)C(O)C1O)COC1OC(CO)C(OC2OC(CO)C(O)C(O)C2O)C(O)C1O (stereo not drawn) [MNG-15]	0.02 mM	0.0022%	–	–	–	–	–

SMILES	CMC [1]	CMC (%) [1]	ΔTm ([2]; 10 × CMC, relative to DDM)	Tm [2, 3]	ΔTm ([2]; 50 × CMC, relative to DDM)	Tm ([2]; 50 × CMC)	ΔTm [2, 4]
CCCCCCCCCCCCCCCC(=O)NCC(CNC(=O)CCCCC)(COC1OC(CO)C(OC2OC(CO)C(O)C(O)C2O)C(O)C1O)COC1OC(CO)C(OC2OC(CO)C(O)C(O)C2O)C(O)C1O (stereo not drawn) [MNG-16]	0.023 mM	0.0026%	–	–	–	–	–
CCCCCCCCCCCCC(=O)NCC(CNC(=O)CCCCCCCC)(COC1OC(CO)C(OC2OC(CO)C(O)C(O)C2O)C(O)C1O)COC1OC(CO)C(OC2OC(CO)C(O)C(O)C2O)C(O)C1O (stereo not drawn) [MNG-17]	0.02 mM	0.002%	–	–	–	–	–
CCCCCCCCCCCCCCC(=O)NCC(CNC(=O)CCCCCC)(COC1OC(CO)C(OC2OC(CO)C(O)C(O)C2O)C(O)C1O)COC1OC(CO)C(OC2OC(CO)C(O)C(O)C2O)C(O)C1O (stereo not drawn) [MNG-18]	0.024 mM	0.0027%	–	–	–	–	–
CCCCCCCC(=O)NCC(CNC(=O)CCCCC1CCCCC1)(COC1OC(CO)C(OC2OC(CO)C(O)C(O)C2O)C(O)C1O)COC1OC(CO)C(OC2OC(CO)C(O)C(O)C2O)C(O)C1O (stereo not drawn) [MNG-19]	0.18 mM	0.0194%	–	–	–	–	–
CCCCCCCCC(=O)NCC(CNC(=O)CCCCCCCC)(COC1OC(CO)C(OC2OC(CO)C(O)C(O)C2O)C(O)C1O)COC1OC(CO)C(OC2OC(CO)C(O)C(O)C2O)C(O)C1O (stereo not drawn) [MNG-20]	0.3 mM	0.0319%	–	–	–	–	–
CCCCCCCC(=O)NCC(CNC(=O)C(C1CCCCC1)C1CCCCC1)(COC1OC(CO)C(OC2OC(CO)C(O)C(O)C2O)C(O)C1O)COC1OC(CO)C(OC2OC(CO)C(O)C(O)C2O)C(O)C1O (stereo not drawn) [MNG-21]	0.24 mM	0.0268%	–	–	–	–	–
O=C(Cc1cc(C(F)(F)F)cc(C(F)(F)F)c1)NCC(CNC(=O)Cc1cc(C(F)(F)F)cc(C(F)(F)F)c1)(COC1OC(CO)C(OC2OC(CO)C(O)C(O)C2O)C(O)C1O)COC1OC(CO)C(OC2OC(CO)C(O)C(O)C2O)C(O)C1O (stereo not drawn) [MNG-23]	0.9 mM	0.1162%	–	–	–	–	–
O=C(CCc1cc(C(F)(F)F)cc(C(F)(F)F)c1)NCC(CNC(=O)CCc1cc(C(F)(F)F)cc(C(F)(F)F)c1)(COC1OC(CO)C(OC2OC(CO)C(O)C(O)C2O)C(O)C1O)COC1OC(CO)C(OC2OC(CO)C(O)C(O)C2O)C(O)C1O (stereo not drawn) [MNG-24]	0.84 mM	0.1108%	–	–	–	–	–
CC(C)(C)C1CCC(C(=O)NCC(CNC(=O)C2CCC(C(C)(C)C)CC2)(COC2OC(CO)C(OC3OC(CO)C(O)C(O)C3O)C(O)C2O)COC2OC(CO)C(OC3OC(CO)C(O)C(O)C3O)C(O)C2O)CC1 (stereo not drawn) [MNG-26]	0.12 mM	0.0134%	–	–	–	–	–
CCCCCCCCCCCC(=O)NCC(CNC(=O)CCCCCCCCCCC)(COC1OC(CO)C(OC2OC(CO)C(O)C(O)C2O)C(O)C1O)COC1OC(CO)C(OC2OC(CO)C(O)C(O)C2O)C(O)C1O (stereo not drawn) [MNG-27]	0.008 mM	0.0009%	–	–	–	–	–
CCCCCCCCCOCC(COCCCCCCCCC)(COC1OC(CO)C(OC2OC(CO)C(O)C(O)C2O)C(O)C1O)COC1OC(CO)C(OC2OC(CO)C(O)C(O)C2O)C(O)C1O (stereo not drawn) [MNG-30]	0.017 mM	0.0018%	–	–	–	–	–
CCCCCCCCOCC(COCCCCCCCC)(COC1OC(CO)C(OC2OC(CO)C(O)C(O)C2O)C(O)C1O)COC1OC(CO)C(OC2OC(CO)C(O)C(O)C2O)C(O)C1O (stereo not drawn) [MNG-31]	0.034 mM	0.0034%	–	–	–	–	–
CCCCC(CCCC)OCC(COC(CCCC)CCCC)(COC1OC(CO)C(OC2OC(CO)C(O)C(O)C2O)C(O)C1O)COC1OC(CO)C(OC2OC(CO)C(O)C(O)C2O)C(O)C1O (stereo not drawn) [MNG-33]	0.092 mM	0.0095%	–	–	–	–	–
CCCCCCCCCCC(=O)NCCOC1OC(CO)C(OC2OC(CO)C(O)C(O)C2O)C(O)C1O (stereo not drawn) [MPA-6]	–	–	−12.1	51.4 (n = 3)*	–	–	−12.1
CCCCCCCCCCOCCOC1OC(CO)C(OC2OC(CO)C(O)C(O)C2O)C(O)C1O (stereo not drawn) [MPA-11]	–	–	−4.7	58.8 (n = 3)*	−4.7	58.3 (n = 3)	−4.7
